Test results published in US20260125357A1, “LACTATE ENHANCING COMPOUNDS AND USES THEREOF” (GLIAPHARM SA, priority 2022, published 2026).

What was measured:
primary astrocytes [1] = assay: MTT mitochondrial activity assay in primary astrocytes; format: cell-based, mouse; conditions: different concentrations, after 1.5 h or 24 h
Experimental: (§1) Primary cultures of cerebrocortical astrocytes were obtained from 1 to 2-day-old OF1 mouse pups (Charles River Laboratories). Briefly, cortices were isolated and minced in small pieces under a dissecting microscope. The cells were incubated for 30 min at 37° C. in a solution containing 20 U/ml papain, 1 mM L-cysteine and 10 kU/ml DNase I. After dissociation, papain activity was stopped by the addition of fetal calf serum (FCS). Single-cell suspension was then obtained by mechanical dissociation, which consisted in cells trituration in a DMEM D7777 medium supplemented with 44 mm NaHCO3, 10 ml/L antibiotic/antimycotic solution and 10% FCS. The cells were seeded at an average density of ˜10′000 cells/cm^2 on poly-D-lysine coated 96- or 12-well culture plates, depending on their use, and grown in DMEM D7777 medium supplemented with 44 mm NaHCO3, 10 ml/L antibiotic/antimycotic solution and 10% FCS at 37° C. in a humidified atmosphere containing 5% CO2/95% air. Culture medium was renewed twice a week. Cells were stimulated and harvested between DIV14 and DIV17, when confluence and cell growth were optimal.
To monitor mitochondrial activity in astrocytes, which is linked to the metabolic process of glycolysis and production of lactate, astrocytes in 96-well plates were stimulated for 24 h (37° C. 5% CO2/95% air) with the compounds of the invention ranging from 10 nM to 10 μM.
After stimulation, 5 mg/ml thiazol blue tetrazolium bromide (MTT) in D5030 medium complemented with 5 mM D-glucose and 44 mM sodium bicarbonate (pH 7.2) was added to each well, and cells were incubated for 4 h at 37° C. (5% CO2). The medium was then removed and the amount of reduced MTT, i.e formazan, solubilized in DMSO (50 μl/well) was determined using a spectrophotometer (absorbance of 570 nm).
The mitochondrial activity was monitored in MTT colorimetric assay in primary astrocytes treated with Compounds (1), (2), (3), (4) (5), (9) and (10) at different concentrations after 1.5 h (FIG. 2 A, B, D, E, F, C, H, respectively) or 24 h (FIG. 2 H, I, K, L, M, J, N, respectively).

C57Bl/6J wild-type mice [2] = assay: Lactate and glucose biosensors, cerebral extracellular levels in freely moving mice; format: in vivo, mouse; conditions: per os, doses 10 to 30 mg/kg, 3 hours, AUC ratio vs vehicle
Experimental: (§2) All experiments were carried out in strict accordance with the Swiss Federal Guidelines for Animal Experimentation and were approved by the Cantonal Veterinary Office for Animal Experimentation (Canton of Geneva, Switzerland). Adult male C57Bl/6J wild-type mice weighting 18-28 g (8 to 12 weeks of age) were used (Charles River Laboratories). Animals were housed in groups of 3-5 in polypropylene cages (30×40×15 cm) with wire mesh top in a temperature (22±2° C.) and humidity (55±15%) controlled environment on a 12-hour light cycle (07.00-19.00 h lights on), except after surgeries when animal were housed individually. The samples (Vehicle or compounds of the invention) were administered per os (gavage) in a solution made of water supplemented with 0.4% hydroxypropyl methylcellulose (HPMC) Methocel 4 KM (w/v) and 0.25% Tween-20 (v/v), as previously described (Thackaberry et al., 2010, Toxicol Sci., 117(2):485-92). Concentrations of the compounds tested ranged from 3 to 30 mg/kg.
Cerebral extracellular levels of L-lactate and D-glucose were monitored in vivo using lactate and glucose biosensors (Pinnacle Technology), respectively, according to the manufacturer's instructions. Cannulae were surgically implanted in the medial prefrontal cortices (coordinates: −1.0 mm (to bregma), lateral+/−1.0 mm (to mideline), ventral −1.0 mm (to dura))) of isoflurane-anesthetized mice 5 to 7 days prior experiment. After surgery, mice were monitored closely and received analgesic treatment for at least 4 days. After mice had fully recovered from surgery, compounds of the invention of vehicle were administered per os as previously described and cerebral levels of extracellular lactate and glucose were dynamically recorded for 6 hours using biosensors. Mice were administered vehicle alone first, followed 3 hours later by vehicle or Compounds of the Invention. Concentrations of cerebral extracellular lactate and glucose were calculated from the biosensor electric signals using post-calibration values. […] Area Under the Curve (AUC) of lactate and glucose concentration curves were calculated using Graphad Prism and the ratio of AUC after drug over Vehicle administration was calculated. Extracellular concentrations of lactate and glucose were measured in real time in freely moving animals for 3 hours after administration of Vehicle or compounds (1) to (4) at doses ranging from 10 to 30 mg/kg (FIG. 5).

primary astrocytes [3] = assay: Extracellular medium acidification (SNARF5) assay in astrocytes; format: cell-based; conditions: Mus musculus, Astrocyte; astrocytes in vitro; compounds 10 nM to 30 μM; read-out: Activity (EC50 class, extracellular medium acidification SNARF5)
Experimental: To assess for the effect of the compounds of the invention, those were tested in primary mouse astrocytes and astrocytes differentiated from human-derived induced pluripotent stem cells (iPSCs). Secretion of lactate was measured indirectly through the acidification of extracellular medium using extracellular pH sensor SNARE-5F-(AND-6)-CAR (SNARF5) as described below.
as §1
Secretion of lactate was measured indirectly through the acidification of extracellular medium using extracellular pH sensor SNARF-5F-(AND-6)-CAR (SNARF5). After washing cells twice with stimulation medium (DMEM (D5030, Sigma), 1 mM […], and 5 mM Glucose, pH 7.4) at 37° C., cells were stimulated with compounds at a final concentration ranging from 10 nM to 30 μM in 50 μl per well of stimulation medium supplemented with 10 μM of SNARF5 (Life Technologies Corporation). Each compound was tested in two different plates for duplicates. After 30, 60 and 90 min stimulation, fluorescence was read at exc. (excitation) 480 nm/emm. (emission) 580 nm and at exc 480 nm/emm. 630 nm. The ratio of fluorescence between 630 nm and 580 emission values, which is proportional to extracellular pH, was calculated. In each plate, 8 wells were used for negative controls (DMSO 0.1%) and 8 wells were used for positive controls (CCCP 2 μM in DMSO). Results are shown as % of positive control effect (0% and 100% being activities of the Veh and positive control, respectively).

[4] = system: Wild-type (WT) and GLUT1-DS transgenic mice; assay: Grip strength test in WT and GLUT1-DS transgenic mice; format: in vivo, mouse; conditions: 10 mg/kg, after rotarod session
Source text: (§3) Heterozygous transgenic mice on 129/SvJ genetic background in which glucose transporter 1 (GLUT1) has been knocked down were used (GLUT1(+/−)) (Wang et al., 2016, Human Molecular Genetics, 15(7)). GLUT1-deficiency syndrome (GLUT1-DS) is a prototypic hypometabolic diseases caused by the mutation of GLUT1 and decreased levels of glucose and lactate in the brain (Tang et al., 2019, Annals of Clinical and Translational Neurology 6(9)). Mating colonies were composed of wild-type female mice and GLUT1-DS male mice, or GLUT1-DS female mice and wild-type male mice. F1 pups were genotyped after ear punching at weaning using PCR to determine genotype. Mice of 2 to 3 months of age were used.
Motor strength was measured on the grip strength test (Bioseb) after rotarod session. Wild-type (WT) and GLUT1-DS transgenic mice were placed with 4 paws on the grid and maximal grip strength was recorded over 2 sessions with 5 minutes apart. Maximal grip strength over the 2 sessions was recorded.

C57Bl/6J wild-type mice [5] = assay: 18F-FDG PET glucose uptake in the brain; format: in vivo, mouse; conditions: gavage, 30 mg/kg, vs Vehicle
Experimental: as §2
^18F-FDG PET Glucose uptake in the brain was measured in vivo using 18F-fluorodeoxyglucose (FDG) with positron emission tomography (PET) Scan. Mice were fasted for 12 hours before the scans PET/CT measurements. Compounds of the invention were administered by gavage, followed by an intraperitoneal injection of 5 MBq of ^18F-FDG in 300 μL of saline. […]

GLUT1-DS transgenic mice = assay: Rotarod motor function in GLUT1-DS transgenic mice; format: in vivo, mouse; conditions: single administration 10 mg/kg, 20 min before rotarod
Source text: as §3
Motor function was measured in wild-type (WT) and GLUT 1-DS transgenic mice in the rotarod after single administration of Veh. or compound (1) or (2) (10 mg/kg) 20 min before rotarod. Rotarod testing consisted in placing the mouse on an accelerating rotating rod (4 to 40 r.p.m.) during a maximum of 300 seconds. 3 consecutive sessions with 15 min apart were performed. Latency for the mouse to fall from the rod was recorded and the maximal latency over the 3 trials was used as a measure of motor function.

Compound	mitochondrial activity (MTT colorimetric assay) (primary astrocytes [1])	extracellular glucose levels in the brain (C57Bl/6J wild-type mice [2])	extracellular lactate levels in the brain (C57Bl/6J wild-type mice [2])	EC50 (primary astrocytes [3]) [µM]	muscle strength (grip strength) [4]	glucose uptake in the brain (18F-FDG in the whole brain) (C57Bl/6J wild-type mice [5])	rotarod performance (latency to fall) (GLUT1-DS transgenic mice)
COc1cc2c(Nc3ccc(S(C)(=O)=O)cc3)nccc2cc1O [Compound 4, 7-methoxy-1-(4-methylsulfonylanilino)isoquinolin-6-ol]	none of the selected compounds had direct effect on mitochondrial activity	significantly increases extracellular glucose levels	significantly increases extracellular lactate levels	< 1			
COc1cc2ccnc(Cc3ccc(N4CCCC4=O)cc3)c2cc1OC [Compound 1, 1-[4-[(6,7-dimethoxy-1-isoquinolyl)methyl]phenyl]pyrrolidin-2-one]	none of the selected compounds had direct effect on mitochondrial activity	significantly increases extracellular glucose levels	significantly increases extracellular lactate levels	< 1	did not lead to any difference on muscle strength	increases glucose uptake in the brain	increased rotarod performance
COc1cc2ccnc(Nc3ccc(S(C)(=O)=O)cc3)c2cc1O [Compound 3, 6-methoxy-1-(4-methylsulfonylanilino)isoquinolin-7-ol]	none of the selected compounds had direct effect on mitochondrial activity	significantly increases extracellular glucose levels	significantly increases extracellular lactate levels	< 1			
